The assay concerns the target T1, ACE, rat kidney preparations (Rattus norvegicus, UniProt P47820).
T1 construct: either compound- or vehicle-dosed rat kidney preparations; from tissue; host or cells: kidney of male Sprague-Dawley rats
T1 sequence (P47820 36-1313): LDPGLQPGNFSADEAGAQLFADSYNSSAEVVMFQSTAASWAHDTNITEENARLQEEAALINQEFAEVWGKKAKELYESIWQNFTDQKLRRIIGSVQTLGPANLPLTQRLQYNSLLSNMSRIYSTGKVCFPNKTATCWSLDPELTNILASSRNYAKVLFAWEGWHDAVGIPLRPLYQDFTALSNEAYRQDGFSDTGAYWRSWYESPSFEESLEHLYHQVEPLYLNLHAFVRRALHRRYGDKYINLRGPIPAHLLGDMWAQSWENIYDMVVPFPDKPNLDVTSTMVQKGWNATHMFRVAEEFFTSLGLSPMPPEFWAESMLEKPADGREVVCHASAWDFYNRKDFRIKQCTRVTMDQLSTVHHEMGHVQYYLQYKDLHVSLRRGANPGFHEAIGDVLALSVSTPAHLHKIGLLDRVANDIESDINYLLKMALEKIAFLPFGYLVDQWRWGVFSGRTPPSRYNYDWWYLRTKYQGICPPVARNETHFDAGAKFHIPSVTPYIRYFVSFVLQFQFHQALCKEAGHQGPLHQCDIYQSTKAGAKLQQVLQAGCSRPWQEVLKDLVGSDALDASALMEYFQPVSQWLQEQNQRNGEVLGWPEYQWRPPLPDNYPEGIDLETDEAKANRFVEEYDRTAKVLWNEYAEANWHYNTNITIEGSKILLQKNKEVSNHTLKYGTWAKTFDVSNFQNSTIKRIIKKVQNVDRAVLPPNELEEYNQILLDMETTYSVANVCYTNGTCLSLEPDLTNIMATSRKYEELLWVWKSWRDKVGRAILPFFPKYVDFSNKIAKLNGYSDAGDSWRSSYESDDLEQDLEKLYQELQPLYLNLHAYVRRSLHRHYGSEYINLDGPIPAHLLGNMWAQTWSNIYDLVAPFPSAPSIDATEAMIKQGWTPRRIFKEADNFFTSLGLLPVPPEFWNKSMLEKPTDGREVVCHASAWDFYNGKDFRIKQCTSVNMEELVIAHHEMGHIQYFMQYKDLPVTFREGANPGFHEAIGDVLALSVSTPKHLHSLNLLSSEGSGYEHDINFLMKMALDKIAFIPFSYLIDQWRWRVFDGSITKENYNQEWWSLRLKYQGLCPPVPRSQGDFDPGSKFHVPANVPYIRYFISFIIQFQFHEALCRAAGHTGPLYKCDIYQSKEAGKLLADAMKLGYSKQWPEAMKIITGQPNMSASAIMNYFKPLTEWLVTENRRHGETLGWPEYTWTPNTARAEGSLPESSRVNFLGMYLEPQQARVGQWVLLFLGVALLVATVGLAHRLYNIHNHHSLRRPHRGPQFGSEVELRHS
Nature of the assay: Radiometric ACE assay with tritiated hippuryl-glycyl-glycine, rat kidney preparations. Format: biochemical. The settings on record: 1 μM enalaprilat; compound- or vehicle-dosed rat kidney preparations.

Take `C[C@H](N[C@@H](CCc1ccccc1)C(=O)O)C(=O)N1CCC[C@H]1C(=O)O` [enalaprilat]: the “inhibition of radioactive product formation” value is reported as “Complete inhibition”.

These data come from patent US5629309A, “2-substituted indane-2-mercaptoacetylamide disulfide derivatives useful as inhibitors of enkephalinase and ACE” (Merrell Pharmaceuticals Inc., priority 1995, dated 1997).
